Reference: PubChem BioAssay AID651592 (Sanford-Burnham Center for Chemical Genomics, 2012)

What was measured:
[1] = inhibitors of NFkB activation in CF airway cells, SAR follow-up, KKLEB cells, panel, IL8 HTRF, NFkB-GFP (AID 651592); settings: PAF/TNFa-induced NFkB-GFP / IL8 HTRF, CF-PAF assay;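 note: immortalized cystic fibrosis airway epithelial KKLEB cells with an NF-kB GFP reporter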
[2] = target: Interleukin-8 (Homo sapiens) (UniProt P10145); assay: as above; settings: PAF/TNFa-induced NFkB-GFP / IL8 HTRF
Sequence of Interleukin-8 (Homo sapiens) (P10145 whole entry, looked up): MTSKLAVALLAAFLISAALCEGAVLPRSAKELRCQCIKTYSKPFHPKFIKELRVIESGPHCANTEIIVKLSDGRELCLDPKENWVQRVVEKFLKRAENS

IL8 = assay: as above; settings: PAF/TNFa-induced NFkB-GFP / IL8 HTRF, mean of runs, mean IC50 across panel replicates
[3] = mean of runs, mean IC50 across panel replicates

Row | Compound | IC50 [1, 3] [µM] | IC50 ([1]; run 1) [µM] | IC50 ([1]; run 2) [µM] | IC50 ([1]; run 3) [µM] | IC50 ([1]; run 4) [µM] | IC50 ([1]; run 5) [µM] | IC50 ([1]; run 6) [µM] | IC50 ([2]; IL8, PAF-induced, run 1) [µM] | IC50 ([2]; IL8, PAF-induced, run 2) [µM] | IC50 ([2]; IL8, PAF-induced, run 3) [µM] | IC50 ([2]; IL8, PAF-induced, run 4) [µM] | IC50 ([2]; IL8, PAF-induced, run 5) [µM] | IC50 ([2]; IL8, PAF-induced, run 6) [µM] | IC50 ([2]; IL8, TNFa-induced, run 1) [µM] | IC50 ([2]; IL8, TNFa-induced, run 2) [µM] | IC50 ([2]; IL8, TNFa-induced, run 3) [µM] | IC50 ([2]; IL8, TNFa-induced, run 4) [µM] | IC50 ([2]; IL8, TNFa-induced, run 5) [µM] | IC50 ([2]; IL8, TNFa-induced, run 6) [µM] | IC50 (IL8; PAF-induced) [µM] | other results
1 | O=C(Nc1ccc(N2CCN(C(=O)c3ccccc3Cl)CC2)cc1)c1cccnc1 | 25.3 | 3.68 | 4.18 | 4.81 | > 66 | > 66 | 7.26 | > 66 | > 66 | > 66 | > 66 | > 66 | > 66 | > 66 | > 66 | > 66 | > 66 | > 66 | > 66 | > 66 | IC50 (IL8; TNFa-induced): > 66 µM
2 | O=C(Nc1ccc(N2CCN(C(=O)c3ccccc3F)CC2)cc1)c1cc(Br)cc(Br)c1 | > 66 | > 66 | > 66 | > 66 | > 66 | > 66 | > 66 | > 66 | > 66 | > 66 | > 66 | > 66 | > 66 | > 66 | > 66 | > 66 | > 66 | > 66 | > 66 | > 66 | IC50 (IL8; TNFa-induced): > 66 µM
3 | CCOc1ccc(NCc2cc3c(-c4ccc(OC)c(OC)c4)nn(-c4ccccc4)c3[nH]c2=O)cc1 | 25.2 | 18.7 | 44.7 | 48 | 10.4 | 12.9 | 16.3 | 1.25 | 1.71 | 1.85 | 1.33 | 1.66 | 1.89 | > 66 | > 66 | > 66 | > 66 | > 66 | > 66 | 1.62 | IC50 (IL8; TNFa-induced): > 66 µM
4 | O=C(Nc1ccc(N2CCN(C(=O)c3ccccc3Cl)CC2)cc1)c1ccccn1 | 39.5 | 8.15 | 14.4 | 16.5 | > 66 | > 66 | > 66 | > 66 | 12.5 | 19.7 | 3.66 | 5.84 | 53.2 | > 66 | > 66 | > 66 | > 66 | > 66 | > 66 | 19 | IC50 (IL8; TNFa-induced): > 66 µM
5 | O=C(Nc1ccc(N2CCN(C(=O)c3ccc(F)cc3)CC2)cc1)c1cccnc1 | 41.4 | 38.3 | 39.4 | 46.4 | > 66 | > 66 | > 66 | > 66 | > 66 | > 66 | > 66 | > 66 | > 66 | > 66 | > 66 | > 66 | > 66 | > 66 | > 66 | > 66 | IC50 (IL8; TNFa-induced): > 66 µM

Continued, in another order:

Row | IC50 [1, 3] [µM] | IC50 ([1]; run 1) [µM] | IC50 ([1]; run 2) [µM] | IC50 ([1]; run 3) [µM] | IC50 ([1]; run 4) [µM] | IC50 ([1]; run 5) [µM] | IC50 ([1]; run 6) [µM] | IC50 ([2]; IL8, PAF-induced, run 1) [µM] | IC50 ([2]; IL8, PAF-induced, run 2) [µM] | IC50 ([2]; IL8, PAF-induced, run 3) [µM] | IC50 ([2]; IL8, PAF-induced, run 4) [µM] | IC50 ([2]; IL8, PAF-induced, run 5) [µM] | IC50 ([2]; IL8, PAF-induced, run 6) [µM] | IC50 ([2]; IL8, TNFa-induced, run 1) [µM] | IC50 ([2]; IL8, TNFa-induced, run 2) [µM] | IC50 ([2]; IL8, TNFa-induced, run 3) [µM] | IC50 ([2]; IL8, TNFa-induced, run 4) [µM] | IC50 ([2]; IL8, TNFa-induced, run 5) [µM] | IC50 ([2]; IL8, TNFa-induced, run 6) [µM] | IC50 (IL8; PAF-induced) [µM] | Compound | other results
6 | 20.5 | 14.9 | 16.6 | 19.2 | 20.7 | 23.1 | 28.5 | > 66 | 4.44 | 17.8 | > 66 | > 66 | > 66 | > 66 | > 66 | 14.9 | > 66 | > 66 | 8.25 | 47.7 | O=C(Nc1ccc(N2CCN(C(=O)c3ccccc3)CC2)cc1)c1cccc(Br)c1 | IC50 (IL8; TNFa-induced): 47.9 µM
7 | 11.8 | 7.29 | 8.71 | 9.34 | 5.23 | 11.3 | 29 | > 66 | > 66 | > 66 | 1.15 | 3.67 | 10 | > 66 | > 66 | 2.69 | > 66 | > 66 | > 66 | 35.5 | O=C(Nc1ccc(N2CCN(C(=O)c3ccccc3Cl)CC2)cc1)c1ccncc1 | IC50 (IL8; TNFa-induced): 55.5 µM
8 | > 66 | > 66 | > 66 | > 66 | > 66 | > 66 | > 66 | > 66 | > 66 | > 66 | > 66 | > 66 | > 66 | > 66 | > 66 | > 66 | > 66 | > 66 | > 66 | > 66 | O=C(Nc1ccc(N2CCN(C(=O)c3ccccc3)CC2)cc1)c1cc(Br)cc(Br)c1 | IC50 (IL8; TNFa-induced): > 66 µM
